Where “and” joins values, the source holds several entries; their conditions need not be identical. Equal values may be shown once.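 Tested at 5 concentrations; 48 h exposure; 96-well plates; endpoints linearly interpolated, else capped at highest concentration. Abbreviation: GI50, concentration required for 50% inhibition of growth. TGI denotes the concentration required for complete inhibition of growth.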
Key:
Test in all cases: NCI anticancer screen, dose series, 48 h
[1] = test system: SK-MEL-2 melanoma
[2] = test system: MDA-MB-231 breast
[3] = test system: HCT-15 colon
[4] = test system: HOP-62 NSCLC
[5] = test system: KM12 colon
[6] = test system: EKVX NSCLC
[7] = test system: NCI-H522 lung
[8] = test system: NCI-H23 lung
[9] = test system: 786-0 renal
[10] = test system: SN12C renal

SMILES	GI50 [1] [µM]	TGI [1]	GI50 [2] [µM]	TGI [2] [µM]	GI50 [3] [µM]	TGI [3]	GI50 [4] [µM]	TGI [4]	GI50 [5] [µM]	TGI [5]	GI50 [6] [µM]	TGI [6] [µM]	GI50 [7] [µM]	TGI [7]	GI50 [8] [µM]	TGI [8]	GI50 [9] [µM]	TGI [9]	GI50 [10] [µM]	TGI [10]
O=C1Nc2ccc(CN3CCOC3=O)cc2/C1=C/c1cc(CN2CCOCC2)c[nH]1	39.2	> 100 µM	78.8	> 100	29.4	> 100 µM	42.7	> 100 µM	4.08	> 100 µM	37.5	> 100	36.1	> 100 µM	32.5	> 100 µM	62.5	> 100 µM	45.4	> 100 µM
O=C(c1ccccc1)c1ccc(O)c2ncccc12	12	43.3 µM	3.6	64.3	1.66	25.9 µM	5.31	48.6 µM	3.25	16.9 µM	3.09	56.1	2.51	8.3 µM	4.85	19.6 µM	5.09	26.5 µM	2.46	14.8 µM
N#CSCC1CC(O)(c2ccccc2)CC(c2ccc(Cl)cc2)O1 (stereo not given)	1.89	3.78 µM	2.8	11.2	2.4	8.05 µM	4.46	14.9 µM	1.77	3.36 µM	4.19	17.7	1.36	2.83 µM	2.41	6.53 µM	2.14	4.66 µM	1.81	3.77 µM
Cc1ccc(N(/C=C/C(=O)C(F)(F)F)CC(=O)c2ccc(Cl)c(Cl)c2)cc1	3.26	16.1 µM	3.12	17.9	3.64	14.5 µM	12.3	24.8 µM	3.53	15 µM	3.54	18.9	5.16	17.8 µM	10.3	21.9 µM	13.5	26.3 µM	13.1	25.8 µM
CN(N=O)C(=O)Nc1ccc(C(=O)O)cc1	–	> 100 µM	–	> 100	–	> 100 µM	–	> 100 µM	–	> 100 µM	–	> 100	–	> 100 µM	–	> 100 µM	–	> 100 µM	–	> 100 µM
C/C(=C1/N=C(c2ccccc2)OC1=O)c1ccccc1	–	> 100 µM	–	> 100	–	> 100 µM	–	> 100 µM	–	> 100 µM	–	> 100	–	> 100 µM	–	> 100 µM	–	> 100 µM	–	> 100 µM
COc1cccc2c1C(=O)c1c(O)c3c(c(O)c1C2=O)C[C@@](O)(C(C)=O)C[C@@H]3OC1CC(O)C(O)C(C)O1 (stereo not given in full)	–	9.44 µM and 15.2 µM	–	> 100	–	9.84 µM and 14.6 µM	–	7.09 µM and 1.78 µM	–	9.61 µM and 12.2 µM	–	27.2	–	9.44 µM and 7.38 µM	–	6.17 µM and 4.32 µM	–	8.12 µM and 19.4 µM	–	8.75 µM and 17.5 µM
COc1ccc(C2SCC(=O)N2NC(=O)C(O)c2ccccc2)cc1 (stereo not given)	> 100	> 100 µM	> 100	> 100	> 100	> 100 µM	> 100	> 100 µM	> 100	> 100 µM	> 100	> 100	> 100	> 100 µM	–	–	> 100	> 100 µM	> 100	> 100 µM
CSC(=NC#N)S/C=C/C(=O)c1cccc2ccccc12	34.3	> 100 µM	26.2	75.4	27.4	> 100 µM	34	61.2 µM	29.1	> 100 µM	26.4	> 100	28.5	81.4 µM	–	–	16.2	43.5 µM	31.1	> 100 µM
OCC#CCCCCOCC#Cc1ccccc1C#CCOCCCCC#CCO	51.1	> 100 µM	16.1	38.3	16.3	34.7 µM	–	–	19.6	40.5 µM	17.8	41.3	71.3	> 100 µM	23	48.8 µM	36.9	> 100 µM	22.3	39 µM
COC(=O)c1ccc(NC(N)=NCC(C)(C)COc2ccc(C(F)(F)F)cc2)nc1	1.86	3.47 µM	1.7	3.39	1.56	3.08 µM	1.67	3.2 µM	–	–	1.43	3.41	1.6	3.23 µM	1.45	3.09 µM	1.46	2.83 µM	1.79	3.41 µM
CC(C)C[C@H]1C(=O)N2CCC[C@H]2[C@]2(O)O[C@](NC(=O)[C@@H]3C=C4c5cccc6[nH]c(Br)c(c56)C[C@H]4N(C)C3)(C(C)C)C(=O)N12	–	> 100 µM	–	> 100	–	> 100 µM	–	> 100 µM	–	> 100 µM	–	> 100	–	> 100 µM	–	–	–	> 100 µM	–	> 100 µM
Clc1ccc(-c2nc(C(Cl)Cl)nc3cc(-c4ccccc4)nn23)cc1	> 50	> 50 µM	1.8	> 50	1.3	> 50 µM	1.22	4.57 µM	0.884	2.89 µM	–	–	1.52	> 50 µM	0.947	2.64 µM	> 50	> 50 µM	> 50	> 50 µM
C[n+]1cc2cc3c(cc2c2ccccc21)OCO3	3.51	11.3 µM	10.8	54	70.2	> 100 µM	6.62	43.2 µM	1.22	10.1 µM	–	–	2.17	6.23 µM	2.37	13.6 µM	12.4	> 100 µM	2.31	11.1 µM
N=C1N=C(N)S/C1=C\c1ccc2ncccc2c1	> 25	> 25 µM	> 25	> 25	> 25	> 25 µM	> 25	> 25 µM	> 25	> 25 µM	–	–	> 25	> 25 µM	> 25	> 25 µM	> 25	> 25 µM	> 25	> 25 µM
